Consider 18 molecules from US9661854B2, “Molecules having pesticidal utility, and intermediates, compositions, and processes, related thereto” (Dow AgroSciences LLC, priority 2015, dated 2017).

By mortality is commonly meant the share of the test organisms that died.

For assay [1], the system named is Cabbage Looper (Trichoplusia ni, TRIPNI). Kind of assay: Bioassay on Cabbage Looper (CL), 128-well diet tray assay. Format: in vivo. As to conditions: 168 h, 50 μg/cm^2 on artificial diet, second instar larvae, 25° C., five to seven days, average of eight wells, read-out: CL % Control (or Mortality) rating. On the procedure:
(§1) Example A: Bioassays on Beet Armyworm (Spodoptera exigua, LAPHEG) (“BAW”) and Cabbage Looper (Trichoplusia ni, TRIPNI) (“CL”)
(§2) Certain molecules disclosed in this document were tested against BAW and CL using procedures described in the following examples. In the reporting of the results, the “BAW & CL Rating Table” was used (See Table Section).
Bioassays on CL were conducted using a 128-well diet tray assay. One to five second instar CL larvae were placed in each well (3 mL) of the diet tray that had been previously filled with 1 mL of artificial diet to which 50 μg/cm^2 of the test molecule (dissolved in 50 μL of 90:10 acetone-water mixture) had been applied (to each of eight wells) and then allowed to dry. Trays were covered with a clear self-adhesive cover, vented to allow gas exchange, and held at 25° C., 14:10 light-dark for five to seven days. Percent mortality was recorded for the larvae in each well; activity in the eight wells was then averaged. The results are indicated in the table entitled “Table ABC: Biological Results” (See Table Section).

Assay [2] deals with Beet Armyworm (Spodoptera exigua, LAPHEG). Nature of the assay: Bioassay on Beet Armyworm (BAW), 128-well diet tray assay. Format: in vivo. As to conditions: 168 h, 50 μg/cm^2 on artificial diet, second instar larvae, 25° C., five to seven days, average of eight wells, read-out: BAW % Control (or Mortality) rating. The protocol: as §1, §2
Bioassays on BAW were conducted using a 128-well diet tray assay. One to five second instar BAW larvae were placed in each well (3 mL) of the diet tray that had been previously filled with 1 mL of artificial diet to which 50 μg/cm^2 of the test molecule (dissolved in 50 μL of 90:10 acetone-water mixture) had been applied (to each of eight wells) and then allowed to dry. Trays were covered with a clear self-adhesive cover, vented to allow gas exchange, and held at 25° C., 14:10 light-dark for five to seven days. Percent mortality was recorded for the larvae in each well; activity in the eight wells was then averaged. The results are indicated in the table entitled “Table ABC: Biological Results” (See Table Section).

Turning to `CCCc1ccc(C)cc1N1C(=O)CS/C1=N\C(=O)Nc1ccc(/C=C/c2ncn(-c3ccc(OC(F)(F)F)cc3)n2)cc1` [F45, 1-((Z)-3-(5-Methyl-2-propylphenyl)-4-oxothiazolidin-2-ylidene)-3-(4-((E)-2-(1-(4-(trifluoromethoxy)phenyl)-1H-1,2,4-triazol-3-yl)vinyl)phenyl)urea], the mortality at 50 µg/cm2 in assay [1] and in assay [2] was 50 to 100% throughout.
On to `CCOc1ccc(C)cc1N1C(=O)CS/C1=N\C(=O)Nc1ccc(/C=C/c2ncn(-c3ccc(OC(F)(F)F)cc3)n2)cc1` [F46, 1-((Z)-3-(2-Ethoxy-5-methylphenyl)-4-oxothiazolidin-2-ylidene)-3-(4-((E)-2-(1-(4-(trifluoromethoxy)phenyl)-1H-1,2,4-triazol-3-yl)vinyl)phenyl)urea], for which the mortality at 50 µg/cm2 in assay [1] and in assay [2] was 50 to 100% throughout.
With `Cc1cc(N2C(=O)CS/C2=N\C(=O)Nc2ccc(/C=C/c3ncn(-c4ccc(OC(F)(F)F)cc4)n3)cc2)c(C(C)C)cc1F` [F47, 1-((Z)-3-(4-Fluoro-2-isopropyl-5-methylphenyl)-4-oxothiazolidin-2-ylidene)-3-(4-((E)-2-(1-(4-(trifluoromethoxy)phenyl)-1H-1,2,4-triazol-3-yl)vinyl)phenyl)urea], the mortality at 50 µg/cm2 in assay [1] and in assay [2] was 50 to 100% each time.
In the case of `CCC(C)Oc1ccc(C)cc1N1C(=O)CS/C1=N\C(=O)Nc1ccc(/C=C/c2ncn(-c3ccc(OC(F)(F)F)cc3)n2)cc1` (stereo not drawn) [F48, 1-((Z)-3-(2-(sec-Butoxy)-5-methylphenyl)-4-oxothiazolidin-2-ylidene)-3-(4-((E)-2-(1-(4-(trifluoromethoxy)phenyl)-1H-1,2,4-triazol-3-yl)vinyl)phenyl)urea], the mortality at 50 µg/cm2 in assay [1] and in assay [2] was 50 to 100% each time.
For `Cc1ccc(OC(C)C)c(N2C(=O)CS/C2=N\C(=O)Nc2ccc(/C=C/c3ncn(-c4ccc(OC(F)(F)F)cc4)n3)cc2)c1` [F49, 1-((Z)-3-(2-Isopropoxy-5-methylphenyl)-4-oxothiazolidin-2-ylidene)-3-(4-((E)-2-(1-(4-(trifluoromethoxy)phenyl)-1H-1,2,4-triazol-3-yl)vinyl)phenyl)urea], the mortality at 50 µg/cm2 in assay [1] and in assay [2] was 50 to 100% in each case.
On to `Cc1ccc(OC(F)(F)F)c(N2C(=O)CS/C2=N\C(=O)Nc2ccc(/C=C/c3ncn(-c4ccc(OC(F)(F)F)cc4)n3)cc2)c1` [F50, 1-((Z)-3-(5-Methyl-2-(trifluoromethoxy)phenyl)-4-oxothiazolidin-2-ylidene)-3-(4-((E)-2-(1-(4-(trifluoromethoxy)phenyl)-1H-1,2,4-triazol-3-yl)vinyl)phenyl)urea], for which the mortality at 50 µg/cm2 in assay [1] and in assay [2] was 50 to 100% throughout.
In the case of `Cc1ccc(OCC(F)(F)F)c(N2C(=O)CS/C2=N\C(=O)Nc2ccc(/C=C/c3ncn(-c4ccc(OC(F)(F)F)cc4)n3)cc2)c1` [F51, 1-((Z)-3-(5-Methyl-2-(2,2,2-trifluoroethoxy)phenyl)-4-oxothiazolidin-2-ylidene)-3-(4-((E)-2-(1-(4-(trifluoromethoxy)phenyl)-1H-1,2,4-triazol-3-yl)vinyl)phenyl)urea], the mortality at 50 µg/cm2 in assay [1] and in assay [2] was 50 to 100% throughout.
For `Cc1ccc(OC(C)(C)C)c(N2C(=O)CS/C2=N\C(=O)Nc2ccc(/C=C/c3ncn(-c4ccc(OC(F)(F)F)cc4)n3)cc2)c1` [F52, 1-((Z)-3-(2-(tert-Butoxy)-5-methylphenyl)-4-oxothiazolidin-2-ylidene)-3-(4-((E)-2-(1-(4-(trifluoromethoxy)phenyl)-1H-1,2,4-triazol-3-yl)vinyl)phenyl)urea], the mortality at 50 µg/cm2 in assay [1] and in assay [2] was 50 to 100% each time.
For the molecule `COCc1ccc(C)cc1N1C(=O)CS/C1=N\C(=O)Nc1ccc(/C=C/c2ncn(-c3ccc(OC(F)(F)F)cc3)n2)cc1` [F53, 1-((Z)-3-(2-(Methoxymethyl)-5-methylphenyl)-4-oxothiazolidin-2-ylidene)-3-(4-((E)-2-(1-(4-(trifluoromethoxy)phenyl)-1H-1,2,4-triazol-3-yl)vinyl)phenyl)urea], the mortality at 50 µg/cm2 in assay [1] and in assay [2] was 50 to 100% each time.
In the case of `COC(=O)c1cc(/C=C/c2ncn(-c3ccc(OC(F)(F)F)cc3)n2)ccc1NC(=O)/N=C1\SCC(=O)N1c1cc(C)ccc1C(C)C` [F54, Methyl 2-(3-((Z)-3-(2-isopropyl-5-methylphenyl)-4-oxothiazolidin-2-ylidene)ureido)-5-((E)-2-(1-(4-(trifluoromethoxy)phenyl)-1H-1,2,4-triazol-3-yl)vinyl)benzoate], the mortality at 50 µg/cm2 in assay [1] and in assay [2] was 50 to 100% in each case.
In the case of `Cc1ccc(C(C)C)c(N2C(=O)CS/C2=N\C(=O)Nc2ccc(/C=C/c3ncn(-c4ccc(OC(F)(F)F)cc4)n3)cc2F)c1` [F55, 1-(2-Fluoro-4-((E)-2-(1-(4-(trifluoromethoxy)phenyl)-1H-1,2,4-triazol-3-yl)vinyl)phenyl)-3-((Z)-3-(2-isopropyl-5-methylphenyl)-4-oxothiazolidin-2-ylidene)urea], the mortality at 50 µg/cm2 in assay [1] and in assay [2] was 50 to 100% throughout.
Consider `Cc1ccc(C(C)C)c(N2C(=O)CS/C2=N\C(=O)Nc2ccc(/C=C/c3ncn(-c4ccc(OC(F)(F)F)cc4)n3)cc2Cl)c1` [F56, 1-(2-chloro-4-((E)-2-(1-(4-(trifluoromethoxy)phenyl)-1H-1,2,4-triazol-3-yl)vinyl)phenyl)-3-((Z)-3-(2-isopropyl-5-methylphenyl)-4-oxothiazolidin-2-ylidene)urea], for which the mortality at 50 µg/cm2 in assay [1] and in assay [2] was 50 to 100% in each case.
For `Cc1ccc(C(C)C)c(N2C(=O)CS/C2=N\C(=O)Nc2c(F)cc(/C=C/c3ncn(-c4ccc(OC(F)(F)F)cc4)n3)cc2F)c1` [F57, 1-(2,6-difluoro-4-((E)-2-(1-(4-(trifluoromethoxy)phenyl)-1H-1,2,4-triazol-3-yl)vinyl)phenyl)-3-((Z)-3-(2-isopropyl-5-methylphenyl)-4-oxothiazolidin-2-ylidene)urea], the mortality at 50 µg/cm2 in assay [1] and in assay [2] was 50 to 100% in each case.
Consider `COc1cc(/C=C/c2ncn(-c3ccc(OC(F)(F)F)cc3)n2)ccc1NC(=O)/N=C1\SCC(=O)N1c1cc(C)ccc1C(C)C` [F58, 1-((Z)-3-(2-isopropyl-5-methylphenyl)-4-oxothiazolidin-2-ylidene)-3-(2-methoxy-4-((E)-2-(1-(4-(trifluoromethoxy)phenyl)-1H-1,2,4-triazol-3-yl)vinyl)phenyl)urea], for which the mortality at 50 µg/cm2 in assay [1] and in assay [2] was 50 to 100% in each case.
Regarding `COCc1ccc(C)cc1N1C(=O)CS/C1=N\C(=O)Nc1ccc(/C=C/c2ncn(-c3ccc(OC(F)(F)F)cc3)n2)cc1F` [F59, 1-(2-Fluoro-4-((E)-2-(1-(4-(trifluoromethoxy)phenyl)-1H-1,2,4-triazol-3-yl)vinyl)phenyl)-3-((Z)-3-(2-(methoxymethyl)-5-methylphenyl)-4-oxothiazolidin-2-ylidene)urea], the mortality at 50 µg/cm2 in assay [1] and in assay [2] was 50 to 100% each time.
Consider `Cc1ccc(C(C)C)c(N2C(=O)CS/C2=N\C(=O)Nc2ccc(/C=C/c3ncn(-c4ccc(OC(F)(F)F)cc4)n3)c(F)c2)c1` [F61, 1-(3-fluoro-4-((E)-2-(1-(4-(trifluoromethoxy)phenyl)-1H-1,2,4-triazol-3-yl)vinyl)phenyl)-3-((Z)-3-(2-isopropyl-5-methylphenyl)-4-oxothiazolidin-2-ylidene)urea], for which the mortality at 50 µg/cm2 in assay [1] and in assay [2] was 50 to 100% throughout.
In the case of `Cc1ccc(C(C)C)c(N2C(=O)CS/C2=N\C(=O)Nc2ccc(/C=C/c3ncn(-c4ccc(OC(F)(F)F)cc4)n3)cc2C(F)(F)F)c1` [F62, 1-((Z)-3-(2-isopropyl-5-methylphenyl)-4-oxothiazolidin-2-ylidene)-3-(4-((E)-2-(1-(4-(trifluoromethoxy)phenyl)-1H-1,2,4-triazol-3-yl)vinyl)-2-(trifluoromethyl)phenyl)urea], the mortality at 50 µg/cm2 in assay [1] and in assay [2] was 50 to 100% in each case.
Turning to `CCCc1ccc(C)cc1N1C(=O)CS/C1=N\C(=O)Nc1ccc(/C=C/c2ncn(-c3ccc(OC(F)(F)F)cc3)n2)cc1F` [F63, 1-(2-Fluoro-4-((E)-2-(1-(4-(trifluoromethoxy)phenyl)-1H-1,2,4-triazol-3-yl)vinyl)phenyl)-3-((Z)-3-(5-methyl-2-propylphenyl)-4-oxothiazolidin-2-ylidene)urea], the mortality at 50 µg/cm2 in assay [1] and in assay [2] was 50 to 100% each time.
